Measurements published in paper PMC4669789, “Selective inhibition of HDAC8 decreases neuroblastoma growth in vitro and in vivo and enhances retinoic acid-mediated differentiation” (Cell Death & Disease, 2015).

Assays:
[1] = system: neuroblastoma cell culture; experiment: Intracellular whole lysine acetylation via FACS; assay type: cell-based, human
Description: Cells were collected, washed with PBS and fixed with 2% paraformaldehyde for 15 min at room temperature (RT). Cells were permeabilized by incubation with 50 μg/ml digitonin for 6 min at RT. Cells were incubated with primary antibody overnight at 4 °C. After staining with Cy3-conjugated anti-rabbit antibody, cells were analyzed by FACS using CellQuest software (BD Biosciences, San Jose, CA, USA). The following primary antibodies were used: anti-acetylated lysine (polyclonal; Cell Signaling) and anti-neurofilament-M (clone EP2460; Epitomics, Burlingame, CA, USA).

HDAC1 = HDAC1 (Homo sapiens, UniProt Q13547); experiment: In vitro HDAC activity assay (Reaction Biology); assay type: biochemical; conditions: cell-free; symbol; read-out: IC50 values of HDAC8 inhibitors, HDAC1
PBMC = experiment: Western blot of histone 4 and α-tubulin acetylation in PBMC of treated mice; assay type: in vivo, mouse; conditions: MTD concentrations, 2 h after intraperitoneal injection
Description: Whole blood (100 μl) was collected from the femoral vein of untreated athymic NMRI nude mice (HsdCpb:NMRI-Foxn1^nu; Harlan Laboratories Inc.), and respective animals were killed 2 h after intraperitoneal injection of substances. For the analysis of whole acetylation levels, mice were killed at half-life time of the inhibitors. Whole blood with heparin was added to RBC lysis buffer (diluted 1 : 10) (BioLegend, San Diego, CA, USA) at a ratio of 1 : 4. Next, red blood cell lysis was performed according to the manufacturer's instructions. PBMCs were lysed in SDS lysis buffer for western blot or processed for FACS analysis.
Western blot analysis was performed as described previously.[15] For detection of phosphoproteins, PhosStop (Roche, Penzberg, Germany) was added to the lysis buffer. The following antibodies were used for detection: anti-HDAC8 (H-145) (polyclonal; Santa Cruz, Santa Cruz, CA, USA), anti-acetyl tubulin (clone 6-11B-1; Sigma), anti-acetyl-histone H4 (polyclonal; Upstate, Lake Placid, NY, USA), anti-acetyl-SMC3 (provided by Prof. K Shirahige, University of Tokyo, Tokyo, Japan), anti p21^waf1/cip1 (clone CP74; Merck), anti-Trk (C-14) (polyclonal; Santa Cruz), anti-neurofilament-M (polyclonal; Merck), anti-β-actin (clone AC-15; Sigma), anti-P-CREB (Ser133; Cell Signaling, Danvers, MA, USA), anti-CREB (48H2; Cell Signaling) and anti-GAPDH (clone 6C5; Merck).

NMRI Foxn1 nude mice = experiment: Determination of MTD and dose-limiting toxicities
Description: (§1) Each dose was tested in a cohort of three animals. Resulting MTDs were validated within cohorts of eight animals for each inhibitor. […] As a reference, the blood of 12 untreated NMRI Foxn1 nude mice was analyzed. […] Vorinostat was used as a control for unselective HDAC inhibition.
(§2) DLTs were monitored by observation of general condition and determination of body weight. We used several criteria for objectively measuring DLT. These included a decrease in body weight of ≥20% compared with baseline body weight, blood analysis of standard parameters for clinical chemistry and hematology (central laboratory of University Hospital Heidelberg, Heidelberg, Germany) and organ histopathology (formalin-fixed, paraffin-embedded organs), by H&E stain for the detection of necrosis (Prof. Dr. AD Gruber, Institute for Veterinary Pathology, Berlin, Germany).

[2] = Determination of MTD and dose-limiting toxicities; conditions: NMRI Foxn1 nude, mouse, in vivo, ip
Description: as §1, §2

HDAC6 = target: T1, HDAC6 (Homo sapiens, UniProt Q9UBN7); experiment: In vitro HDAC activity assay (Reaction Biology); assay type: biochemical
T1 sequence (Q9UBN7 1-1215): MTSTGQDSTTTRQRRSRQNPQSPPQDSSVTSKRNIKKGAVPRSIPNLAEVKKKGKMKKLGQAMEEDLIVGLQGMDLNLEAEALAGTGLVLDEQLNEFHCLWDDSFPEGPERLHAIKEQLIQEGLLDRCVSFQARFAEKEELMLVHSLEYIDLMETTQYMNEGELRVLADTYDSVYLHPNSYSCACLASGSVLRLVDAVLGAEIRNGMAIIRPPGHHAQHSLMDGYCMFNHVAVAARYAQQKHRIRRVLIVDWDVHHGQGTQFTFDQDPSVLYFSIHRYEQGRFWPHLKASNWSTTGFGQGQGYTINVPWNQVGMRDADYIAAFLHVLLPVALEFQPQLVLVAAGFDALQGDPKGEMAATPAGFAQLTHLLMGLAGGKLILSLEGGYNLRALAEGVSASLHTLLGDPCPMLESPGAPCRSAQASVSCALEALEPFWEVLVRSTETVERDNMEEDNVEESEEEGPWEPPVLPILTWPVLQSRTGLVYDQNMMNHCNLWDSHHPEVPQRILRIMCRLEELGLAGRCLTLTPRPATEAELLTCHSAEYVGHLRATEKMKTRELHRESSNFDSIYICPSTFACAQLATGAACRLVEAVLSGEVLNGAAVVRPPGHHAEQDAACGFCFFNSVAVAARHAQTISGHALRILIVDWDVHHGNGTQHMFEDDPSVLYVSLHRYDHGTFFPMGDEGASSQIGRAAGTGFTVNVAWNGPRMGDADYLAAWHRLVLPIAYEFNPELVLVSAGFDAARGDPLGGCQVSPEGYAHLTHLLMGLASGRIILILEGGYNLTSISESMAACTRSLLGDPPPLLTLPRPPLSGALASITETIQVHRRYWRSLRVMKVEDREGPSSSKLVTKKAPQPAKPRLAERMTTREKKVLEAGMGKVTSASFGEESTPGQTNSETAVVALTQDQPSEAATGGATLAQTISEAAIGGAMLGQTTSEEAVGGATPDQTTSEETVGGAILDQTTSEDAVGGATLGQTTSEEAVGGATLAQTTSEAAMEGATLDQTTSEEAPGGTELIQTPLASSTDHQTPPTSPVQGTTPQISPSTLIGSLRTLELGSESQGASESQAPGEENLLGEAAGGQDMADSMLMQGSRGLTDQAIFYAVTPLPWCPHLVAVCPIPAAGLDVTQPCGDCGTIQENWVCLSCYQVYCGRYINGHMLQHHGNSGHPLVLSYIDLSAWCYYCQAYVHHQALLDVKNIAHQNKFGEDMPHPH
Description: (§3) Peptide substrate was conjugated with AMC. […] The HDAC reaction was performed at 30 °C for 2 h before adding the developer reagent. The free AMC was detected with excitation of 360 nm and emission 460 nm at kinetic mode for 90 min. IC50 values were calculated with GraphPad Prism version 3.0a (GraphPad Software Inc., San Diego, CA, USA).

HDAC2 = HDAC2 (Homo sapiens, UniProt Q92769); experiment: In vitro HDAC activity assay (Reaction Biology); assay type: biochemical; conditions: cell-free; read-out: IC50 values of HDAC8 inhibitors, HDAC2
Description: as §3

HDAC2, sequence (Q92769 9-322 limits assumed): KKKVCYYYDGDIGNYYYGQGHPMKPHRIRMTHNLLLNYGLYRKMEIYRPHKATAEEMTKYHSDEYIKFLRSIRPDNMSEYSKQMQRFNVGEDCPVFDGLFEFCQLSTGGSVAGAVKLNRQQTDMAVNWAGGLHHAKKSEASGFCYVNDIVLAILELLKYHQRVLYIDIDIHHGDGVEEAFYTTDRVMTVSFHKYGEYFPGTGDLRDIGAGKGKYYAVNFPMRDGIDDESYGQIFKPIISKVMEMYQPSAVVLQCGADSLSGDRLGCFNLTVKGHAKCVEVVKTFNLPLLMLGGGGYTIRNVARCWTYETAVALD
HDAC1, sequence (Q13547 9-321 limits assumed): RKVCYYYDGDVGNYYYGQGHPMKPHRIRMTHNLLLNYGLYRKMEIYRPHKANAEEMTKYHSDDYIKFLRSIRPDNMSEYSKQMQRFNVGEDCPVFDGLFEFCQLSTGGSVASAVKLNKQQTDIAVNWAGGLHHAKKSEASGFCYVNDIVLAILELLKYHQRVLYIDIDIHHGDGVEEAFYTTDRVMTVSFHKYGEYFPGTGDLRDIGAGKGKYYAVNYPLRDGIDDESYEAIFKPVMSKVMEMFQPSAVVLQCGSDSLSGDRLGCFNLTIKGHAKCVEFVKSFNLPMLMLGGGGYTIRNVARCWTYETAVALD

O=C(NO)c1cccc2ccccc12 [Cpd2, 1-naphthohydroxamic acid]
whole acetyl-lysine mean fluorescent values (Blank-corrected) ([1]; 20µM, solvent 34.4, second experiment): 56.9
whole acetyl-lysine mean fluorescent values (Blank-corrected) ([1]; 40µM, solvent 24.7, IMR-32 cells, 24 h per Figure 1c): 36.9
IC50 (HDAC1): > 75.6 µM
tubulin and histone 4 acetylation in PBMC (PBMC): absence of tubulin acetylation and absence of histone 4 acetylation
Dose-limiting toxicities (DLTs) (NMRI Foxn1 nude mice; intraperitoneal, increasing doses 40 up to 400 mg/kg per day): weight loss and signs of liver toxicity
body weight and blood parameters at MTD (NMRI Foxn1 nude mice; mouse, in vivo): neither body weight (Figure 2a) nor blood parameters were critically changed
MTD [2]: 50 mg/kg/day
IC50 (HDAC6; cell-free, read-out: IC50 values of HDAC8 inhibitors, HDAC6): 75.6 µM
concentrations above which HDAC6 and HDAC1 are potential off-target HDACs (HDAC6; from cell-free assays of HDACs 1–11): above 75 μM
IC50 (HDAC2): > 75.6 µM
